Read-outs that look alike come from different tables or passages of the source.
Tests used:
[1] = target: T1, Recombinant STAT3 protein (STAT3 (G127-I722)) (Homo sapiens, UniProt P40763); experiment: STAT3 Fluorescence Polarization (FP) Assay; type: binding; settings: probe 5-FAM-GpYLPQTV-NH2 2 nM, 45-minute incubation
T1 construct: Recombinant STAT3 protein (STAT3 (G127-I722))
Method in brief: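 Compounds in serial dilution receive a premix of STAT3 (G127-I722, 25 nM) and fluorescent phosphotyrosine peptide 5-FAM-GpYLPQTV-NH2 (2 nM) at pH 7.4. After 45 min at room temperature, FP is measured and IC50 derived by nonlinear regression.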

[2] = target: T2, Recombinant STAT6 protein (STAT6 (W123-T658)) (Homo sapiens, UniProt P42226); experiment: STAT6 Fluorescence Polarization (FP) Assay; type: binding; settings: probe 5-FAM-Ap[…]-NH2 2 nM, 45-minute incubation
T2 construct: Recombinant STAT6 protein (STAT6 (W123-T658))
T2 sequence (P42226 123-658): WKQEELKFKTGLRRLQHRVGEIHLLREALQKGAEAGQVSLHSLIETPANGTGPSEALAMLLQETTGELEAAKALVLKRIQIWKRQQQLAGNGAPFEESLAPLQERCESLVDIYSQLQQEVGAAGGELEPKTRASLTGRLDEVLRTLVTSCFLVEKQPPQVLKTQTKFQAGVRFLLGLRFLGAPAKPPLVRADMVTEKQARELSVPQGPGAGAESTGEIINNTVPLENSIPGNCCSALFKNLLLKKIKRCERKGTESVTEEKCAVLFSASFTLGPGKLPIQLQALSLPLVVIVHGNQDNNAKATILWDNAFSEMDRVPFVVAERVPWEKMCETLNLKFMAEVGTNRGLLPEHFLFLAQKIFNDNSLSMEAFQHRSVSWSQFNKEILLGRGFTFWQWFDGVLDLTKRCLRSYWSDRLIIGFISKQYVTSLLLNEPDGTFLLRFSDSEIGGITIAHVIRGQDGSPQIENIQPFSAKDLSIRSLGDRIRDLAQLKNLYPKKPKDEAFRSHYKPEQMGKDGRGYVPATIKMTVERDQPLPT
Method in brief: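 Protein-probe mix (250 nM STAT6 W123-T658, 2 nM 5-FAM-pTyr peptide) in 10 mM HEPES pH 7.4, 50 mM NaCl, 1 mM EDTA, 0.05% Tween 20, 2 mM DTT; added to compound dilution series, 1% DMSO final; 45 min RT; FP read; IC50 via nonlinear regression.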

[3] = STAT3 25 nM, read-out: STAT3 (FP assay IC50)
[4] = STAT6 250 nM, read-out: STAT6 (FP assay IC50)
[5] = STAT3 (G127-I722) 25 nM, read-out: STAT3 (FP assay IC50 class)
[6] = STAT6 (W123-T658) 250 nM, read-out: STAT6 (FP assay IC50 class)

T1 sequence (P40763 127-722): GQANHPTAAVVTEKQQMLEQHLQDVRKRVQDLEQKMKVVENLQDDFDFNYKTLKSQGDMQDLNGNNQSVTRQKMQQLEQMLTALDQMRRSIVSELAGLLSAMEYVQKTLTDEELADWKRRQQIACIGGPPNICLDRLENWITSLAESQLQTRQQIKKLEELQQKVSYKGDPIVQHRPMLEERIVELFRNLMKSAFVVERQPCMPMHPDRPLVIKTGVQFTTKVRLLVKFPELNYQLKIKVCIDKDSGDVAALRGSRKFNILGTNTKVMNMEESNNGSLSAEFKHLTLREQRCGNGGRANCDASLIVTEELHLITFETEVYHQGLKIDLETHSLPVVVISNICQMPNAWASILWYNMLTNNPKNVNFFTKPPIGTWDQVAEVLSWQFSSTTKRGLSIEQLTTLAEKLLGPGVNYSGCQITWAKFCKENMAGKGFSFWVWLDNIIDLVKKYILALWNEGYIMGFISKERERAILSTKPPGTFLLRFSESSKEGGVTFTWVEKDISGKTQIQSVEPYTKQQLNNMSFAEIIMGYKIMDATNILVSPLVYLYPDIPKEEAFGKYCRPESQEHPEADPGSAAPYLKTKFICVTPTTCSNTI

IC50 [1, 3] [µM] | IC50 [2, 4] [µM] | IC50 [1, 5] [µM] | IC50 [2, 6] [µM] | SMILES
0.1 to 1 | 3 to 30 |  |  | CC(C)(O)c1cn(C2CN(C(=O)[C@@H]3CC[C@@H]4CCCC[C@H](NC(=O)c5cc6cc(C(F)(F)P(=O)(O)O)ccc6s5)C(=O)N43)C2)nn1 [Compound 56, (difluoro(2-(((3S,6S,10aS)-3-(3-(4-(2-hydroxypropan-2-yl)-1H-1,2,3-triazol-1-yl)azetidine-1-carbonyl)-5-oxodecahydropyrrolo [1,2-a]azocin-6-yl)carbamoyl)benzo[b]thiophen-5-yl)methyl) phosphonic acid]
 |  | < 0.1 | 0.3 to 3 | CC1(c2ccccn2)CN(C(=O)[C@@H]2CC[C@@H]3CCC[C@H](NC(=O)c4cc5cc(C(F)(F)P(=O)(O)O)ccc5s4)C(=O)N32)C1 [Compound 547, (difluoro(2-(((3S,6S,9aS)-3-(3-methyl-3-(pyridin-2-yl)azetidine-1-carbonyl)-5-oxooctahydro-1H-pyrrolo[1,2-a]azepin-6-yl)carbamoyl)benzo[b]thiophen-5-yl)methyl)phosphonic acid]
 |  | < 0.1 | 3 to 30 | COCCOC1(c2ccccn2)CN(C(=O)[C@@H]2CC[C@@H]3CCCC[C@H](NC(=O)c4cc5cc(C(F)P(=O)(O)O)ccc5s4)C(=O)N32)C1 (stereo partly drawn) [Compound 615, (fluoro(2-(((3S,6S,10aS)-3-(3-(2-methoxyethoxy)-3-(pyridin-2-yl)azetidine-1-carbonyl)-5-oxodecahydropyrrolo[1,2-a]azocin-6-yl)carbamoyl)benzo [b]thiophen-5-yl)methyl) phosphonic acid]
 |  | 1 to 10 | 0.3 to 3 | N#C[C@@H]1[C@@H](c2cncc(Cl)c2)CN(C(=O)[C@@H]2CC[C@@H]3CCCC[C@H](NC(=O)c4cc5cc(C(F)P(=O)(O)O)ccc5s4)C(=O)N32)C12CC2 (single isomer, unassigned) [Compound 846]
 |  | 1 to 10 | 3 to 30 | COc1cc(F)ncc1C1CN(C(=O)[C@@H]2CC[C@@H]3CCC[C@H](NC(=O)c4cc5cc(CP(=O)(O)O)ccc5s4)C(=O)N32)C1 [Compound 577, ((2-(((3S,6S,9aS)-3-(3-(6-fluoro-4-methoxypyridin-3-yl)azetidine-1-carbonyl)-5-oxooctahydro-1H-pyrrolo[1,2-a]azepin-6-yl)carbamoyl)benzo[b]thiophen-5-yl)methyl)phosphonic acid]
 |  | < 0.1 | 3 to 30 | CN(C)c1ccncc1C1CN(C(=O)[C@@H]2CC[C@@H]3CCC[C@H](NC(=O)c4cc5cc([C@@H](F)P(=O)(O)O)ccc5s4)C(=O)N32)C1 (single isomer, unassigned) [Compound 631]
 |  | < 0.1 | 0.3 to 3 | COc1ccncc1[C@@H]1CCN(C(=O)[C@@H]2CC[C@@H]3CCC[C@H](NC(=O)c4cc5cc(C(F)P(=O)(O)O)ccc5s4)C(=O)N32)C1 (stereo partly drawn) [Compound 706, (fluoro(2-(((3S,6S,9aS)-3-((S)-3-(4-methoxypyridin-3-yl)pyrrolidine-1-carbonyl)-5-oxooctahydro-1H-pyrrolo[1,2-a]azepin-6-yl)carbamoyl)benzo [b]thiophen-5-yl)methyl) phosphonic acid]
< 0.1 | 0.3 to 3 |  |  | O=C(N[C@H]1CCC2(CC2)C[C@H]2CC[C@@H](C(=O)N3CC(c4cccnc4)C3)N2C1=O)c1cc2cc(C(F)(F)P(=O)(O)O)ccc2s1 [Compound 25, (difluoro(2-(((3′S,6′S,10a′R)-5′-oxo-3′-(3-(pyridin-3-yl)azetidine-1-carbonyl)octahydro-1′H-spiro [cyclopropane-1,9′-pyrrolo[1,2-a]azocin]-6′-yl)carbamoyl)benzo[b]thiophen-5-yl)methyl) phosphonic acid]
 |  | 0.1 to 1 | 3 to 30 | O=C(N[C@H]1CCC[C@H]2CC[C@@H](C(=O)N3CC(c4ccncc4)C3)N2C1=O)c1cc2cc(C(F)P(=O)(O)O)ccc2s1 (stereo partly drawn) [Compound 611, (fluoro(2-(((3S,6S,9aS)-5-oxo-3-(3-(pyridin-4-yl)azetidine-1-carbonyl)octahydro-1H-pyrrolo[1,2-a]azepin-6-yl)carbamoyl)benzo [b]thiophen-5-yl)methyl) phosphonic acid]
 |  | < 0.1 | 3 to 30 | O=C(N[C@H]1CCC[C@H]2CC[C@@H](C(=O)N3CC(c4cncnc4N4CCOCC4)C3)N2C1=O)c1cc2cc([C@@H](F)P(=O)(O)O)ccc2s1 (single isomer, unassigned) [Compound 861]
 |  | 1 to 10 | 0.3 to 3 | O=C(N[C@H]1CCCC[C@H]2CC[C@@H](C(=O)N3CC(c4ccccc4)CC34CC4)N2C1=O)c1ccc2ccc(CP(=O)(O)O)cc2c1 (stereo partly drawn) [Compound 884, ((7-(((3S,6S,10aS)-5-oxo-3-(6-phenyl-4-azaspiro[2.4]heptane-4-carbonyl)decahydropyrrolo[1,2-a]azocin-6-yl)carbamoyl)naphthalen-2-yl)methyl) phosphonic acid]
 |  | 0.1 to 1 | 3 to 30 | Cc1cccnc1N1C[C@H](NC(=O)[C@@H]2CC[C@@H]3CCCC[C@H](NC(=O)c4cc5cc(C(F)P(=O)(O)O)ccc5s4)C(=O)N32)[C@@H](F)C1 (stereo partly drawn) [Compound 555, (fluoro(2-(((3S,6S,10aS)-3-(((3S,4S)-4-fluoro-1-(3-methylpyridin-2-yl)pyrrolidin-3-yl)carbamoyl)-5-oxodecahydropyrrolo[1,2-a]azocin-6-yl)carbamoyl)benzo[b]thiophen-5-yl)methyl)phosphonic acid]
 |  | 1 to 10 | ≤ 0.3 | O=C(N[C@H]1CCC[C@H]2CC[C@@H](C(=O)N3CC(c4cccnc4)CC34CC4)N2C1=O)c1cc2cc(C(F)P(=O)(O)O)ccc2s1 (stereo partly drawn) [Compound 907, (fluoro(2-(((3S,6S,9aS)-5-oxo-3-(6-(pyridin-3-yl)-4-azaspiro[2.4]heptane-4-carbonyl)octahydro-1H-pyrrolo[1,2-a]azepin-6-yl)carbamoyl)benzo [b]thiophen-5-yl)methyl) phosphonic acid]
 |  | < 0.1 | 3 to 30 | Cc1cc(C2CN(C(=O)[C@@H]3CC[C@@H]4CCC[C@H](NC(=O)c5cc6cc(C(F)P(=O)(O)O)ccc6s5)C(=O)N43)C2)ccn1 (stereo partly drawn) [Compound 769, (fluoro(2-(((3S,6S,9aS)-3-(3-(2-methylpyridin-4-yl)azetidine-1-carbonyl)-5-oxooctahydro-1H-pyrrolo[1,2-a]azepin-6-yl)carbamoyl)benzo [b]thiophen-5-yl)methyl) phosphonic acid]
 |  | 1 to 10 | 0.3 to 3 | CN(Cc1cc[nH]c(=O)c1)C(=O)[C@@H]1CC[C@@H]2CCCC[C@H](NC(=O)c3cc4cc(C(F)(F)P(=O)(O)O)ccc4s3)C(=O)N21 [Compound 800, (difluoro(2-(((3S,6S,10aS)-3-(methyl((2-oxo-1,2-dihydropyridin-4-yl)methyl)carbamoyl)-5-oxodecahydropyrrolo [1,2-a]azocin-6-yl)carbamoyl)benzo [b]thiophen-5-yl)methyl) phosphonic acid]
 |  | 1 to 10 | 3 to 30 | CN(C)C(=O)c1ccncc1C1CN(C(=O)[C@@H]2CC[C@@H]3CCC[C@H](NC(=O)c4cc5cc([C@@H](F)P(=O)(O)O)ccc5s4)C(=O)N32)C1 (single isomer, unassigned) [Compound 696]
 |  | < 0.1 | 0.3 to 3 | CS(=O)(=O)NC1CN(C(=O)[C@@H]2CC[C@@H]3CCCC[C@H](NC(=O)c4cc5cc(C(F)(F)P(=O)(O)O)ccc5s4)C(=O)N32)C1 [Compound 787, (difluoro(2-(((3S,6S,10aS)-3-(3-(methylsulfonamido)azetidine-1-carbonyl)-5-oxodecahydropyrrolo [1,2-a]azocin-6-yl)carbamoyl)benzo [b]thiophen-5-yl)methyl) phosphonic acid]
 |  | < 0.1 | 0.3 to 3 | O=C(N[C@H]1CCC[C@H]2CC[C@@H](C(=O)N3CC(c4ccccc4O)C3)N2C1=O)c1cc2cc(C(F)P(=O)(O)O)ccc2s1 (stereo partly drawn) [Compound 608, (fluoro(2-(((3S,6S,9aS)-3-(3-(2-hydroxyphenyl)azetidine-1-carbonyl)-5-oxooctahydro-1H-pyrrolo[1,2-a]azepin-6-yl)carbamoyl)benzo [b]thiophen-5-yl)methyl) phosphonic acid]
 |  | 0.1 to 1 | 3 to 30 | COC1(c2cnccc2C)CN(C(=O)[C@@H]2CC[C@@H]3CCCC[C@H](NC(=O)c4cc5cc(C(F)(F)P(=O)(O)O)ccc5s4)C(=O)N32)C1 [Compound 501, (difluoro(2-(((3S,6S,10aS)-3-(3-methoxy-3-(4-methylpyridin-3-yl)azetidine-1-carbonyl)-5-oxodecahydropyrrolo[1,2-a]azocin-6-yl)carbamoyl)benzo[b]thiophen-5-yl)methyl)phosphonic acid]
